Like-named read-outs stand apart in the source and are kept apart here.
Columns and labels:
Aurora kinase B = assay: pHH3 immunohistochemistry in skin punch biopsies; type: in vivo, human; conditions: 8 mg i.v. and 60‒340 mg PO BID
Aurora A = test system: Aurora A; set-up: method as in PMID 22935731; conditions: 1 mM ATP; read-out: Biochemical IC50 (95% confidence limits); cited from earlier work
Aurora C = test system: Aurora C; set-up: method as in PMID 22935731; conditions: 1 mM ATP; read-out: Biochemical IC50 (95% confidence limits); cited from earlier work
VEGFR2 [1] = test system: VEGFR2; set-up: method as in PMID 22935731; conditions: 1 mM ATP; read-out: Biochemical IC50 (95% confidence limits); cited from earlier work
FLT-3 = test system: FLT-3; set-up: method as in PMID 22935731; conditions: 1 mM ATP; read-out: Biochemical IC50 (95% confidence limits); cited from earlier work
CSF-1R [2] = test system: CSF-1R; set-up: method as in PMID 22935731; conditions: 1 mM ATP; read-out: Biochemical IC50 (95% confidence limits); cited from earlier work
c-KIT = test system: c-KIT; set-up: method as in PMID 22935731; conditions: 1 mM ATP; read-out: Biochemical IC50 (95% confidence limits); cited from earlier work
VEGFR2 [3] = test system: VEGFR2; set-up: method as in PMID 22935731; conditions: cited from earlier work
CSF-1R [4] = test system: CSF-1R; set-up: method as in PMID 22935731; conditions: CSF-1R cellular phosphorylation, ligand stimulated; read-out: Cellular PD marker IC50 (95% confidence limits); cited from earlier work
PDGFR-β = test system: PDGFR-β; set-up: method as in PMID 22935731; conditions: PDGFR-β cellular phosphorylation, ligand stimulated; read-out: Cellular PD marker IC50 (95% confidence limits); cited from earlier work

Nc1ncc(-c2cnn(CCO)c2)c2scc(-c3ccc(NC(=O)Nc4cccc(F)c4)cc3)c12 [ilorasertib, Ilorasertib]
pHH3 in epidermis with increasing exposure (Aurora kinase B): dose-dependent decreases of pHH3 | IC50 (Aurora A): […] | IC50 (Aurora C): 1 nM | IC50 (VEGFR2 [1]): 2 nM | IC50 (FLT-3): […] | IC50 (CSF-1R [2]): […] | IC50 (c-KIT): 20 nM | IC50 (VEGFR2 [3]; VEGFR2 cellular phosphorylation, ligand stimulated, read-out: Cellular PD marker IC50 (95% confidence limits)): 5 nM | Potency of VEGFR2 inhibition relative to Aurora kinase B (VEGFR2 [3]; cellular assays): two- to five-fold more potent | IC50 (CSF-1R [4]): […] | IC50 (PDGFR-β): 11 nM

Reference: publication PMC5931107, “Clinical pharmacodynamic/exposure characterisation of the multikinase inhibitor ilorasertib (ABT-348) in a phase 1 dose-escalation trial” (British Journal of Cancer, 2018)
